Laboratory results from patent US11357230B2, “Herbicidal amides” (FMC Corporation, priority 2017, dated 2022).

Legend:
Assay type in all cases: in vivo
[1] = system: barnyardgrass (Echinochloa crus-galli); assay: Test A postemergence, barnyardgrass; details: approximately 10 d
Excerpt: (§1) Seeds of plant species selected from barnyardgrass (Echinochloa crus-galli), kochia (Kochia scoparia), ragweed (common ragweed, Ambrosia elatior), ryegrass, Italian (Italian ryegrass, Lolium multiflorum), foxtail, green (green foxtail, Setaria viridis), and pigweed (Amaranthus retroflexus) were planted into a blend of loam soil and sand and treated preemergence with a directed soil spray using test chemicals formulated in a non-phytotoxic solvent mixture which included a surfactant. At the same time, plants selected from these weed species and also wheat (Triticum aestivum), corn (Zea mays), blackgrass (Alopecurus myosuroides), and galium (catchweed bedstraw, Galium aparine) were planted in pots containing the same blend of loam soil and sand and treated with postemergence applications of test chemicals formulated in the same manner. Plants ranged in height from 2 to 10 cm and were in the one- to two-leaf stage for the postemergence treatment. Treated plants and untreated controls were maintained in a greenhouse for approximately 10 d, after which time all treated plants were compared to untreated controls and visually evaluated for injury. Plant response ratings, summarized in Table A, are based on a 0 to 100 scale where 0 is no effect and 100 is complete control. A dash (-) response means no test result.

[2] = system: blackgrass (Alopecurus myosuroides); assay: Test A postemergence, blackgrass; details: approximately 10 d
Excerpt: as §1

corn (Zea mays) = assay: Test A postemergence, corn; details: approximately 10 d
Excerpt: as §1

Foxtail, Giant [3] = assay: Test A postemergence, giant foxtail; details: approximately 10 d
[4] = system: galium (catchweed bedstraw, Galium aparine); assay: Test A postemergence, galium; details: approximately 10 d
Excerpt: as §1

kochia (Kochia scoparia) [5] = assay: Test A postemergence, kochia; details: approximately 10 d
Excerpt: as §1

[6] = system: pigweed (Amaranthus retroflexus); assay: Test A postemergence, pigweed; details: approximately 10 d
Excerpt: as §1

[7] = system: ragweed (common ragweed, Ambrosia elatior); assay: Test A postemergence, ragweed; details: approximately 10 d
Excerpt: as §1

[8] = system: ryegrass, Italian (Italian ryegrass, Lolium multiflorum); assay: Test A postemergence, Italian ryegrass; details: approximately 10 d
Excerpt: as §1

[9] = system: wheat (Triticum aestivum); assay: Test A postemergence, wheat; details: approximately 10 d
Excerpt: as §1

[10] = system: barnyardgrass (Echinochloa crus-galli); assay: Test A preemergence, barnyardgrass; details: approximately 10 d
Excerpt: as §1

Foxtail, Giant [11] = assay: Test A preemergence, giant foxtail; details: approximately 10 d
kochia (Kochia scoparia) [12] = assay: Test A preemergence, kochia; details: approximately 10 d
Excerpt: as §1

[13] = system: pigweed (Amaranthus retroflexus); assay: Test A preemergence, pigweed; details: approximately 10 d
Excerpt: as §1

[14] = system: ragweed (common ragweed, Ambrosia elatior); assay: Test A preemergence, ragweed; details: approximately 10 d
Excerpt: as §1

[15] = system: ryegrass, Italian (Italian ryegrass, Lolium multiflorum); assay: Test A preemergence, Italian ryegrass; details: approximately 10 d
Excerpt: as §1

[16] = system: barnyardgrass (Echinochloa crus-galli); assay: Test B flooded paddy test, barnyardgrass; details: 250 g ai/ha, Flood (paddy water), 13 to 15 d
Protocol: (§2) Plant species in the flooded paddy test selected from rice (Oryza sativa), sedge, umbrella (small-flower umbrella sedge, Cyperus difformis), ducksalad (Heteranthera limosa), and barnyardgrass (Echinochloa crus-galli) were grown to the 2-leaf stage for testing. At time of treatment, test pots were flooded to 3 cm above the soil surface, treated by application of test compounds directly to the paddy water, and then maintained at that water depth for the duration of the test. Treated plants and controls were maintained in a greenhouse for 13 to 15 d, after which time all species were compared to controls and visually evaluated. Plant response ratings, summarized in Table B, are based on a scale of 0 to 100 where 0 is no effect and 100 is complete control. A dash (-) response means no test result.

[17] = system: ducksalad (Heteranthera limosa); assay: Test B flooded paddy test, ducksalad; details: 250 g ai/ha, Flood (paddy water), 13 to 15 d
Protocol: as §2

rice (Oryza sativa) = assay: Test B flooded paddy test, rice; details: 250 g ai/ha, Flood (paddy water), 13 to 15 d
Protocol: as §2

[18] = system: sedge, umbrella (small-flower umbrella sedge, Cyperus difformis); assay: Test B flooded paddy test, umbrella sedge; details: 250 g ai/ha, Flood (paddy water), 13 to 15 d
Protocol: as §2

CN1C[C@H](c2ccc(C(F)(F)F)cc2)[C@@H](C(=O)Nc2cccc(F)c2F)C1=NN1CCOCC1 (relative stereo) [Compound 7]
Plant response rating (0 to 100 scale, 0 is no effect, 100 is complete control) ([1]; 31 g ai/ha): 0 | Plant response rating (0 to 100 scale, 0 is no effect, 100 is complete control) ([1]; 125 g ai/ha): 50 | Plant response rating (0 to 100 scale, 0 is no effect, 100 is complete control) ([2]; 31 g ai/ha): 30 | Plant response rating (0 to 100 scale, 0 is no effect, 100 is complete control) ([2]; 125 g ai/ha): 30 | Plant response rating (0 to 100 scale, 0 is no effect, 100 is complete control) (corn (Zea mays); 31 g ai/ha): 0 | Plant response rating (0 to 100 scale, 0 is no effect, 100 is complete control) (corn (Zea mays); 125 g ai/ha): 0 | Plant response rating (0 to 100 scale, 0 is no effect, 100 is complete control) (Foxtail, Giant [3]; 31 g ai/ha): 0 | Plant response rating (0 to 100 scale, 0 is no effect, 100 is complete control) (Foxtail, Giant [3]; 125 g ai/ha): 50 | Plant response rating (0 to 100 scale, 0 is no effect, 100 is complete control) ([4]; 31 g ai/ha): 60 | Plant response rating (0 to 100 scale, 0 is no effect, 100 is complete control) ([4]; 125 g ai/ha): 70 | Plant response rating (0 to 100 scale, 0 is no effect, 100 is complete control) (kochia (Kochia scoparia) [5]; 31 g ai/ha): 0 | Plant response rating (0 to 100 scale, 0 is no effect, 100 is complete control) (kochia (Kochia scoparia) [5]; 125 g ai/ha): 60 | Plant response rating (0 to 100 scale, 0 is no effect, 100 is complete control) ([6]; 31 g ai/ha): 0 | Plant response rating (0 to 100 scale, 0 is no effect, 100 is complete control) ([6]; 125 g ai/ha): 60 | Plant response rating (0 to 100 scale, 0 is no effect, 100 is complete control) ([7]; 31 g ai/ha): 0 | Plant response rating (0 to 100 scale, 0 is no effect, 100 is complete control) ([7]; 125 g ai/ha): 50 | Plant response rating (0 to 100 scale, 0 is no effect, 100 is complete control) ([8]; 31 g ai/ha): 10 | Plant response rating (0 to 100 scale, 0 is no effect, 100 is complete control) ([8]; 125 g ai/ha): 30 | Plant response rating (0 to 100 scale, 0 is no effect, 100 is complete control) ([9]; 31 g ai/ha): 0 | Plant response rating (0 to 100 scale, 0 is no effect, 100 is complete control) ([9]; 125 g ai/ha): 10 | Plant response rating (0 to 100 scale, 0 is no effect, 100 is complete control) ([10]; 31 g ai/ha): 10 | Plant response rating (0 to 100 scale, 0 is no effect, 100 is complete control) ([10]; 125 g ai/ha): 50 | Plant response rating (0 to 100 scale, 0 is no effect, 100 is complete control) (Foxtail, Giant [11]; 31 g ai/ha): 50 | Plant response rating (0 to 100 scale, 0 is no effect, 100 is complete control) (Foxtail, Giant [11]; 125 g ai/ha): 90 | Plant response rating (0 to 100 scale, 0 is no effect, 100 is complete control) (kochia (Kochia scoparia) [12]; 31 g ai/ha): 0 | Plant response rating (0 to 100 scale, 0 is no effect, 100 is complete control) (kochia (Kochia scoparia) [12]; 125 g ai/ha): 20 | Plant response rating (0 to 100 scale, 0 is no effect, 100 is complete control) ([13]; 31 g ai/ha): 0 | Plant response rating (0 to 100 scale, 0 is no effect, 100 is complete control) ([13]; 125 g ai/ha): 10 | Plant response rating (0 to 100 scale, 0 is no effect, 100 is complete control) ([14]; 31 g ai/ha): 0 | Plant response rating (0 to 100 scale, 0 is no effect, 100 is complete control) ([14]; 125 g ai/ha): 0 | Plant response rating (0 to 100 scale, 0 is no effect, 100 is complete control) ([15]; 31 g ai/ha): 0 | Plant response rating (0 to 100 scale, 0 is no effect, 100 is complete control) ([15]; 125 g ai/ha): 0 | Plant response rating (scale of 0 to 100, 0 is no effect, 100 is complete control) [16]: 10 | Plant response rating (scale of 0 to 100, 0 is no effect, 100 is complete control) [17]: 45 | Plant response rating (scale of 0 to 100, 0 is no effect, 100 is complete control) (rice (Oryza sativa)): 0 | Plant response rating (scale of 0 to 100, 0 is no effect, 100 is complete control) [18]: 0
